Measurements from a melting point compilation (Tetko et al.; mined from patent text by program, amines drawn as free bases though some values may be those of a salt).

SMILES	melting point
COc1ccc2c([N+](=O)[O-])c(-c3ccc(OCc4ccccc4)cc3)[nH]c(=O)c2c1	252 to 254 °C
Cn1c(=O)cc(-c2cccc(Cl)c2)c2cc(C(C)(c3ccc(Cl)cc3)n3ccnc3)ccc21 (stereo not drawn)	120 °C
COc1cc(N(C)C)ccc1-c1nc2c(N[C@H]3[C@@H](C(N)=O)[C@@H]4C=C[C@H]3C4)c(Br)cnc2[nH]1	218 to 220 °C
CC(=O)NCc1ccc2ccn(C3CCN(CCc4ccccc4F)CC3)c2c1	101 to 102 °C
O=C1OC(O)(Nc2ccccc2Br)C(c2ccccc2)C1c1ccccc1 (stereo not drawn)	162 to 164 °C
c1cc(-c2nc(-c3cnccn3)n[nH]2)ccn1	251 to 252 °C
CCCCOc1nc(N)c2ncn(C3CCCCC3)c2n1	138 to 141 °C
CC1CCc2c(C#N)c(F)cc3c(=O)c(C(=O)O)cn1c23 (stereo not drawn)	300 °C
OCC1OC(n2cnc3c(NCCc4cn(Cc5ccc(Cl)cc5)c5ccccc45)ncnc32)C(O)C1O (stereo not drawn)	181 °C
CC(C)(c1ccccc1)N1CC=C(c2ccccc2)C1=O	85 to 86 °C
COc1ccccc1C1=C(C#N)C(c2cccc3nonc23)c2c[nH]nc2N1 (stereo not drawn)	180 °C
O=C(NCc1ccccc1-c1ccccc1C(=O)NCCc1ccccn1)OCc1ccccc1	140 °C
Cc1cnc2c(c1C)CCCC2C(N)=S (stereo not drawn)	163 to 165 °C
O=C(NCCc1c[nH]c2ccccc12)OCC1CC1	88 to 90 °C
Cc1ccc2ncccc2c1C(=O)NCC1CCCCC1	165 °C
NC(=O)N(O)C1C=C(c2cccc(Oc3ccccc3)c2)CC1 (single isomer, unassigned; (+))	139 to 141 °C
CCCCCCCCC1C(=O)NC(=O)N1CCCCCCC(=O)OCC (stereo not drawn)	68 to 70 °C
Cc1[nH]c(=O)oc1C(=O)c1ccc(-n2ccnc2)cc1	320 °C
O=[N+]([O-])CS(=O)(=O)c1c[nH]c2ccccc12	181 to 182 °C
CN(C)CCCNc1ccc([N+](=O)[O-])cc1	60 to 61.5 °C
CSc1ccc(NC(=O)C(C#N)C(=O)c2cccn2C)cc1 (stereo not drawn)	167 to 168 °C
O=C1C(=Cc2cccnc2)N2CCC1CC2	113 °C
C=CCC(CC=C)(CC=C)C(=O)O[C@H]1C[C@H](O)C=C2C=C[C@H](C)[C@H](CC[C@@H]3C[C@@H](O)CC(=O)O3)[C@H]21	118 to 119 °C

Continued, values first:

melting point	SMILES
145 to 147 °C	CN(Cc1cc2c(=O)c(C(=O)NCc3ccc(Cl)cc3)cn(C)c2o1)CC(O)c1cccs1 (stereo not drawn)
178 °C	CSc1cc(Nc2cccc(C)c2)c(S(=O)(=O)NC(C)(C)C)cn1
94 to 97 °C	CCCC=Cc1c(C(C)C)nc(C(C)C)c(CO)c1-c1cccc(C)c1
65 to 66 °C	CCC(CC(=O)NC(=O)OC(C)(C)C)Nc1ccc(OC)cc1 (stereo not drawn)
164 to 165 °C	CCn1c2ccccc2c2cc(C=C(C#N)c3cc(C(F)(F)F)cc(C(F)(F)F)c3)ccc21
146 to 148 °C	CNC(CC(C)C)c1nc(-c2ccc3c(c2)Nc2ccccc2S3)cs1 (stereo not drawn)
135 to 137 °C	CCCCOc1ccc2cc(C(C)NC(N)=O)ccc2c1 (stereo not drawn)
116 to 118 °C	COC(=O)c1cc(C(=O)OC)c2c(Cl)cc(Cl)cc2n1
> 320 °C	C[C@@H](Nc1ncnc2[nH]c(-c3ccc(CCl)cc3)cc12)c1ccccc1
> 268 °C	COCOc1ccc(-c2ncc3ccc(-c4csc(CN5CCN(C)CC5)c4)nc3n2)cc1
> 250 °C	CC(C)(CO)CNS(=O)(=O)c1ccc(NC=C2C(=O)Nc3ccc4ncsc4c32)cc1
201 to 203 °C	COc1cc2c(Nc3ccc(C)c(OC(C)=O)c3)ncnc2cc1OCc1ccsc1
155 to 157 °C	CCOC(=O)CN(CC(=O)OCC)[C@H]1CC[C@H](Nc2ncc3ncnc(Nc4ccc(F)c(Cl)c4)c3n2)CC1
206 to 208 °C	O=C(O)COc1cc(F)ccc1C(=O)NCc1nc2cc(C(F)(F)F)ccc2s1
213 to 217 °C	COc1ccc(S(=O)(=O)Nc2cccc(C)c2NC(=O)c2ccncc2)cc1
